The record followed here is US8961837B2, “Photosensitive resin composition for color filter and color filter using same” (Cheil Industries Inc., priority 2010, dated 2015).

Data set [1] in a line: Thermogravimetric analysis (TGA) of the dye. It is filed as physicochemical. The conditions noted are these: temperature at which 10% of weight is decomposed (TGA). As to the method:
(§1) The diaminopyridine azo-based dyes (A-1) according to Examples 1 to 6 are measured regarding various properties such as solubility, maximum absorption wavelength, thermal decomposition temperature, and the like.
(§2) FIG. 1 is a graph showing the spectrum transmittance graph of the diaminopyridine azo-based dye (A-1), and FIG. 2 is a graph showing thermogravimetric analysis (TGA) results.

Data set [2] is described as follows: Spectrum transmittance / maximum absorption wavelength of the dye. In kind it is physicochemical. How it is done:
as §1, §2

Each structure is given as a SMILES string.

On to `CCCCC(CC)CNCCS(=O)(=O)c1ccc(/N=N/c2c(NCC(CC)CCCC)nc(NCC(CC)CCCC)c(C#N)c2C)cc1` (centres unmarked) [A-1], for which, in data set [1], the thermal decomposition temperature was 318 °C. Moreover, in data set [2], the maximum absorption wavelength worked out at 470 nm.
